Consider three compounds from article PMC12036875, “Mitochondria-targeting natural product rhein conjugated with dichloroacetate as the dual inhibitor of glycolysis and oxidative phosphorylation to off energize cancer cells and induce ROS storm” (Theranostics, 2025).

The test system of one experiment is 4T1 cells. Briefly: Immunogenic cell death detection in vitro (HMGB1, CRT, extracellular ATP). It is filed as cell-based, Mouse. The source says:
It is known that mitochondrial dysfunction occasioned by ROS triggers immunogenic cell death (ICD), characterized by the release of DAMPs from tumor cells, such as high mobility group box 1 (HMGB1), calreticulin (CRT) and ATP. These DAMPs directly reactivated anti-tumor immune response of TAMs of in vivo [33]. Given the encouraging results of ROS generation, the ICD effect of Rhein-DCA conjugate was consequently explored in vitro. HMGB1 is a type of nuclear protein, which would be released to extracellular during the ICD process. […] This was because rhein, DCA, and the R + D cannot induce adequate production of ROS and sufficient ATP depletion (Figure 5F). We further detected the HMGB1 content in the cell culture media with an ELISA kit. […] This further confirmed that Rhein-DCA effectively promoted the release of HMGB1 from the cell nucleus to the extracellular space (Figure S20). Unlike HMGB1, abundant CRT often exposed on the cell membrane surface of tumor cells. Flow cytometry was employed to analyze CRT protein of 4T1 cells. […] The secreted ATP from 4T1 cells with immunogenicity was further measured to evaluate the ICD effect after being cultured with various drugs for 6, 12 and 24 h. […] There was no apparent distinction between rhein, DCA, R + D groups and the control group when co-cultured for 6 or 12 h. A slight difference was observed until the cultivation time was prolonged to 24 h. […] This reminded us that the Rhein-DCA conjugate may enhance tumor treatment by promoting ICD-mediated immunotherapy.
4T1 cells were seeded in 6-well plates and confocal dishes with an identical density of 10 × 10^4 cells per well for 24 h cultivation. The cells were processed with indicated drugs at a concentration of 6.25 μM for another 24 h. The cells were washed twice with PBS and then fixed with 4%-paraformaldehyde (1 mL) for 15 min at 37 °C, followed by two washes with PBS. (1) The cells on confocal dishes were next permeabilized with triton-X-100 for 15 min at room temperature, blocked with BSA solution (5% in PBS) for 1 h at room temperature, and further incubated with rabbit anti-mouse HMGB-1 (1:500) overnight at 4 °C. Afterwards, the cells were incubated with secondary antibody (1:500) for 1 h at room temperature, washed with PBS, and then stained with Hoechst 33342 (10 μg/mL) for 10 min in the dark at room temperature. Finally, confocal microscope was employed to observe the HMGB1 protein within the cells. The secretion of HMGB1 in culture medium was detected by ELISA assay. The culture media was collected and centrifuged at 1000 G for 20 min, the supernatant was collected and detected with ELISA kit according to the manufacturer's protocol. (2) The cells in the 6-well plates were collected in 1.5 mL tubes, stained with rabbit anti-mouse calreticulin (1:1000) for 30 min at 4 °C, washed twice with PBS, and then analyzed with flow cytometry. (3) For the extracellular ATP content, the cells were cultured for 6, 12 and 24 h at 37 °C, and the medium were collected and centrifuged at 1000 G for 20 min, the supernatant was collected and detection with ELISA kit according to the manufacturer's protocol.

In a further experiment the test system is 4T1 tumor. Briefly: In vivo antitumor effect, 4T1 tumor xenograft model. Also on record: species or system Balb/c mice. Particulars: for tumor H&E and TUNEL staining: 20 mg/kg oral; for tumor H&E and TUNEL staining / tumor growth compared with vehicle group: 24 days; for tumor growth compared with vehicle group: oral gavage daily, n = 5. How it is done: The antitumor efficiency of Rhein-DCA conjugate in vivo was explored using the female Balb/c mice with 4T1 tumor xenografts model. Briefly, 4T1-tumor bearing mice were randomly divided into vehicle, rhein, DCA, R + D and Rhein-DCA conjugate groups when the tumor became apparent (n = 5). Mice were treated daily with vehicle (2.85% anhydrous ethanol / 10% cremophor / 0.02% 0.1 M HCl / 87.15% saline) and rhein, DCA, R + D and Rhein-DCA conjugate (20 mg/kg) by oral gavage for 24 days. The body weight and tumor volume of mice were monitored and recorded every two days. […] The photograph and the weight information of all excised tumor xenografts further visually confirmed the antitumor effect of Rhein-DCA conjugate in vivo (Figure 6C-D). […] Due to suppression of tumor growth, the survival of mice treated with Rhein-DCA conjugate was improved in contrast to vehicle group (Figure S22).
Balb/c female mice (6 weeks) and Sprague-Dawley (SD) rats were purchased from Hubei provincial laboratory animal research center (Wuhan, P. R. China). All related animal experiments were approved by the Animal Welfare Committee of the Animal Experiment Center of Wuhan University. All Balb/c mice were shaved two days in advance and then subcutaneously injected with 4T1 cells (5 × 10^6 cells in 50 μL of PBS per mouse) into the back of the right leg. The 4T1 tumor bearing mice were randomly divided into five groups (5 mice per group) which containing vehicle, rhein, DCA, R + D and Rhein-DCA groups when the tumor volumes reached about 100~120 mm^3. The tumor size was calculated with the following formula:
Subsequently, mice were orally treated with vehicle (2.85% anhydrous ethanol / 10% cremophor / 0.02% HCl (0.1 M) / 87.15% saline) and rhein, DCA, R + D and Rhein-DCA (20 mg/kg, suspended in 2.85% anhydrous ethanol / 10% cremophor / 0.02% HCl (0.1 M) / 87.15% saline) every day. The body weight and tumor size changes of each mouse were measured and recorded every two days.
(§1) After 24 days, the mice were euthanized, and then tumors were excised to photographing and weighting. The tumors in each group were performed with TUNEL (green fluorescence) and H&E assay. In addition, immunohistochemical staining was conducted on the tumor tissue to determine the pPDHA1-Ser^293 protein level. Besides, immunofluorescence staining was used to detect the expression of HMGB1 protein in the tumor.

A further experiment deals with 4T1 tumor tissue. The experiment can be described thus: IHC of pPDHA1-Ser293 and IF of HMGB1 in tumor slices. Particulars: 20 mg/kg oral, 24 days; for pPDHA1-Ser293 protein level in tumor tissue (IHC): vs vehicle. It is filed as in vivo, Balb/c mice.
Description: The TAMs are the prominent components in the TEM and play a critical role in tumoral immunosuppression. Repolarization of protumor M2 phenotype into antitumor M1 phenotype is promising for malignant tumors. On the one hand, as a key metabolite fueling M2 polarization, lactate is very important in modulating the polarization state of macrophages within the tumor microenvironment. To verify that Rhein-DCA conjugate reprogrammed the metabolism of cells on solid tumors, we analyzed the expression of pPDHA1-Ser^293 protein in tumor tissues with immunohistochemical staining (IHC) (Figure 7A). […] The end product lactate of glycolysis decreased 20%, consistent with DCA's ability to reverse the Warburg effect. […] On the other hand, the ICD behavior of cancer cells also can activate TAMs into M1 polarization. Then, the release of HMGB1 was evaluated to assess the ICD effect in vivo with immunofluorescence staining (IF) (Figure 7C).
as §1

Regarding `O=C(O)c1cc(O)c2c(c1)C(=O)c1cccc(O)c1C2=O` [Rhein, 4,5-dihydroxyanthraquinone-2-carboxylic acid], the “HMGB1 in cell nucleus (CLSM red fluorescence)” value (“HMGB1 in cell nucleus” for short) in the experiment with 4T1 cells (6.25 μM, 24 h) is “almost completely located in nuclei”. Also, the “tumor H&E and TUNEL staining” value with 4T1 tumor is “mild apoptosis and necrosis”. For the same compound, in the experiment with 4T1 tumor (20 mg/kg), the “tumor growth compared with vehicle group” value is listed as “slight inhibition”. In addition, in the experiment with 4T1 tumor tissue, the “HMGB1 localisation in tumor slices (IF)” value is given as “almost all of HMGB1 overlapped with nucleus” and the “pPDHA1-Ser293 protein level in tumor tissue (IHC)” value (from here on “pPDHA1-Ser293 protein level”) is “did not significantly alter”.

As for `O=C(OCCOC(=O)C(Cl)Cl)c1cc(O)c2c(c1)C(=O)c1cccc(O)c1C2=O` [Rhein-DCA], in the experiment with 4T1 cells (6.25 μM, 24 h), the “HMGB1 in cell nucleus” value is “disappeared”. In addition, in the experiment on 4T1 cells (6.25 μM, 24 h, flow cytometry), the “surface-exposed CRT” value stood at 44%. For the same compound, the “HMGB1 secreted into the culture medium (ELISA)” value with 4T1 cells (6.25 μM, 24 h, vs control, rhein, DCA, R + D) is “increased significantly”. For the same compound, the “extracellular ATP in supernatants” value with 4T1 cells (6 h to 24 h, vs other groups) is listed as “higher”. In addition, the “tumor H&E and TUNEL staining” value with 4T1 tumor is “more extensive tissue necrosis and considerable cell apoptosis”. For the same compound, the “survival of mice in contrast to vehicle group” value with 4T1 tumor (20 mg/kg, oral) is recorded as “improved”. Besides, the “tumor growth compared with vehicle group” value with 4T1 tumor (20 mg/kg) is on record as “significant inhibition”. In the experiment with 4T1 tumor tissue, the “HMGB1 localisation in tumor slices (IF)” value is given as “mostly appeared outside the nucleus with weak intensity” and the “pPDHA1-Ser293 protein level” value is given as “down-expression”.

For the compound `O=C(O)C(Cl)Cl` [DCA, Dichloroacetate], the “HMGB1 in cell nucleus” value in the experiment with 4T1 cells (6.25 μM, 24 h) was “almost completely located in nuclei”. Also, in the experiment with 4T1 tumor, the “tumor H&E and TUNEL staining” value is “mild apoptosis and necrosis”. Further, the “tumor growth compared with vehicle group” value in the experiment on 4T1 tumor (20 mg/kg) is given as “slight inhibition”. In the experiment on 4T1 tumor tissue, the “HMGB1 localisation in tumor slices (IF)” value was “almost all of HMGB1 overlapped with nucleus” and the “pPDHA1-Ser293 protein level” value is “obvious down-expression”.
